These results are taken from patent US10653732B2, “Composition for stimulating insulin secretion from cells and use thereof” (KOREA INSTITUTE OF SCIENCE AND TECHNOLOGY, priority 2017, dated 2020).

Data set [1] relates to INS-1 cells. The experiment in a line: Protecting effect on pancreatic toxicity (streptozotocin-treated INS-1 cells, CCK-8). The conditions noted are these: for Cell viability (%): rat, 24 h. As to the method: The cell line INS-1 (Biohermes, Shanghai, China) was used to evaluate a protecting effect on pancreatic toxicity as follows.
INS-1 cells were cultured in RPMI1640 medium (Cellgro, Manassas, USA) supplemented with 10% fetal bovine serum (FBS), 100 unit/mL of penicillin G, 100 μg/mL of streptomycin, 10 mM Hepes, 2 mM L-glutamine, 1 mM sodium pyruvate, and 0.05 mM 2-merchapto ethanol in an incubator maintained at 37° C. and 95% air/5% carbon dioxide. Among the above-mentioned ingredients, the reagents of which manufacturers were not mentioned were purchased from Gibco BRL, Life Technologies.
The cultured INS-1 cells were dispensed at a density of 1×10^4 per well in 100 μL of the same medium in a 96-well plate, and cultured for 24 hours under the same conditions to stabilize the cells. […] Then, 10 μL (final concentration of 50 μM) of 500 μM streptozotocin in the same medium was added and cultured for 24 hours. Then, 10 μL of CCK-8 (Dojindo Laboratories, Japan) reagent was added to each well, and cultured at 37° C. 1 hour later, absorbance at 450 nm was measured by using a BIO-TEK (Winooski, Vt., USA) microplate reader to measure cell viability. The predetermined concentrations are as follows: concentrations of the extract and the fractions were 0 μg/mL, 5 μg/mL, 10 μg/mL, 25 μg/mL, 50 μg/mL, and 100 μg/mL. The concentration of the single compound was 0 μM, 5 μM, 10 μM, 25 μM, 50 μM, and 100 μM.

The test system of data set [2] is INS-1 cells. Put plainly: Effect on insulin secretion of INS-1 cells (stimulation index, rat insulin RIA). It is filed as cell-based. Particulars: for Stimulation index (SI): 16.7 mM / […] glucose; for insulin secretion of INS-1 cells in words: concentrations of Table 2. As to the method: Thereafter, the cells were washed twice with 2 ml of Krebs-Ringer buffer which was prepared by mixing 114 mM sodium chloride (NaCl), 4.4 mM potassium chloride (KCl), 1 mM magnesium sulfate (MgSO4), 1.28 mM calcium chloride (CaCl2), 29.5 mM sodium bicarbonate (NaHCO3), 10 mM Hepes (Gibco BRL Life Technologies), and 0.1% bovine serum albumin (BSA) and adjusting a hydrogen ion concentration at pH 7.4.
The concentration of the single compound was 1 μM, 2.5 μM, and 5 μM.
0.2 mL of Krebs-Ringer buffer containing […] glucose was added to each well, and incubated for 1 hour. Thereafter, centrifugation was performed at 4° C. for 10 minutes at 12,000 rpm, and a supernatant was taken and quantity of insulin was measured by using a Rat insulin RIA kit (Gentaur Molecular Products, Belgium). Stimulation index (SI) was calculated by dividing a value measured at a high concentration of glucose, i.e., quantity of insulin secreted by stimulation of 16.7 mM glucose by a value measured at a low concentration of glucose, i.e., quantity of insulin secreted by stimulation of 3.3 mM glucose. As a positive control group, gliclazide was used at a concentration of 2.5 μM, 5.0 μM, 10 μM, or 20 μM.

Data set [3] concerns INS-1 cells. Put plainly: Image-based cell analysis of apoptosis (Annexin V/PI) in streptozotocin-treated INS-1 cells. Also on record: species or system rat. The conditions noted are these: 50 μM streptozotocin; for green fluorescent (apoptotic) cells, microscopic image FIG. 8A: 10 μM or more; for Apoptosis (%): 10 μM, 24 hours, annexin V-positive cells; for apoptosis by streptozotocin in words, FIG. 8B: INS-1 cells. As to the method:
Thereafter, hypoxylonol-C and BNT at a concentration of 10 μM were added to 2.7 mL of the same medium and further cultured for 2 hours. […] Then, cells were collected by using trypsin, and washed with PBS once. The cells were suspended in 100 μL of Annexin binding buffer (composition: 100 mM HEPES, 140 mM NaCl, 25 mM CaCl2, pH 7.4) at a density of 5×10^5 to 5×10^6 cells/mL, and then mixed with 5 μL of Annexin V Alexa Fluor 488, and fixed and stained at room temperature for 20 minutes in the dark room. The cell suspension was centrifuged to discard the supernatant. Precipitated cell pellets were re-suspended in 100 μL of Annexin binding buffer. 1 μL of propidium was added to the cell suspension and mixed well to fix and stain the cells at room temperature for 1 minute to 5 minutes in the dark room. Analysis of the stained cells was performed by using a Tali Image-based cytometer and TaliPCApp (version 1.0).
Cells were sorted into living cells (annexin V-negative/PI-negative), early apoptotic cells (annexin V-positive/PI-negative), and late apoptotic cells or necrotic cells (annexin V-positive/PI-positive), and total apoptotic cells was expressed as a percentage of annexin V-positive/PI-negative or positive cells.

For data set [4], the system named is INS-1 cells. Put plainly: Measurement of cytotoxicity against INS-1 cells (CCK-8 cell viability). It is filed as cell-based, rat. Particulars: for Cell viability (%): 24 hours, INS-1; for cytotoxicity / toxicity in words: INS-1 cells, concentrations of Table 1. How it is done: A cell line INS-1 (Biohermes, Shanghai, China) is a rat insulinoma, and has ability to secrete insulin.
The concentration of the single compound was 1.0 μM, 2.5 μM, and 5.0 μM.
In Table 1, cell viability was calculated by the following equation:
Cell viability (%)=NB×100, wherein A represents absorbance of a non-sample added group and B represents absorbance of a sample-added group.

The conditions of data set [5]: Fukai et al., J. Nat. Prod. 2014, 77, 1065-1068; cited from earlier work.
Setting [6] is: 1.0 (head μg/ml; b127 μM for single compound).
Setting [7] is: 2.5 (head μg/ml; b127, b128 μM for single compound and gliclazide).
Where [8] appears, read: 5.0 (head μg/ml; b127, b128 μM for single compound and gliclazide).
Where [9] appears, read: 1.0 (μg/mL; μM for single compound).
[10] abbreviates: 2.5 (μg/mL; μM for single compound).
Where [11] appears, read: 5.0 (μg/mL; μM for single compound).

SMILES strings stand for the structures. “Also recorded” adds a separate entry of the source. Some results are limits rather than exact numbers.

`CN(N=O)C(=O)N[C@H]1C(O)O[C@H](CO)[C@@H](O)[C@@H]1O` (mixture of isomers) [streptozotocin, reference compound]: the “number of INS-1 cells as compared with non-treated group” value in the data set with INS-1 cells [1] (50 μM streptozotocin, 24 hours) is not above 50%.

As for `Oc1cccc2c(-c3ccc(O)c4c(O)cccc34)ccc(O)c12` [BNT, 1,1′-binaphthalene-4,4′,5,5′-tetrol], the entries for the “Stimulation index (SI)” value in the data set on INS-1 cells [2] (setting [6]), in the data set with INS-1 cells [2] (setting [7]) and in the data set with INS-1 cells [2] (setting [8]) were 6.7 ± 0.0, 7.4 ± 0.0 and 6.8 ± 0.2, respectively. For the same compound, in the data set on INS-1 cells [2], the “insulin secretion of INS-1 cells in words” value (from here on “insulin secretion”) is reported as “concentration-dependent manner”. In addition, the “cell viability reduced by streptozotocin, effect in words” value (from here on “cell viability reduced”) in the data set on INS-1 cells [1] (50 μM streptozotocin) was “significantly increased cell viability”. Moreover, the “Cell viability (%)” value in the data set on INS-1 cells [1] (5 µM) is reported as 73.5 ± 3.0%; with INS-1 cells [1] (10 µM), 76.8 ± 4.5%; in the data set on INS-1 cells [1] (25 µM) it was 78.4 ± 1.5%; in the data set with INS-1 cells [1] (50 µM) it was 81.5 ± 3.3%; with INS-1 cells [4] (setting [9]) it was 100.3 ± 3.6%; in the data set on INS-1 cells [4] (setting [10]), 100.1 ± 2.1%. In addition, in the data set with INS-1 cells [4] (setting [11]), the “Cell viability (%)” value was found to be 106.6 ± 2.9%. In addition, in the data set with INS-1 cells [3], the “green fluorescent (apoptotic) cells, microscopic image FIG. 8A” value is “apoptotic cells were decreased”. The “Apoptosis (%)” value with INS-1 cells [3] turned out to be 19.3 ± 0.5%. For the same compound, the “apoptosis by streptozotocin in words, FIG. 8B” value in the data set on INS-1 cells [3] is reported as “remarkably reduced apoptosis”. The “cytotoxicity / toxicity in words” value in the data set with INS-1 cells [4] was “no cytotoxicity; also recorded: no toxicity”.

Regarding `O=C1CC2C(=C3c4c2ccc(O)c4[C@@H](O)C[C@@H]3O)c2cccc(O)c21` (stereo partly shown) [Hypoxylonol-C], in data set [5], the antiangiogenic effect entry was “has an antiangiogenic effect”. The “Stimulation index (SI)” value with INS-1 cells [2] (setting [6]) stood at 6.3 ± 0.3; in the data set on INS-1 cells [2] (setting [7]), 5.3 ± 0.1; in the data set on INS-1 cells [2] (setting [8]) it was 6.1 ± 0.1. In addition, in the data set on INS-1 cells [2], the “insulin secretion” value is listed as “concentration-dependent manner”. For the same compound, in the data set with INS-1 cells [1] (50 μM streptozotocin), the “cell viability reduced” value was “significantly increased cell viability”. Also, the “Cell viability (%)” value with INS-1 cells [1] (5 µM) is 66.0 ± 0.9%; in the data set with INS-1 cells [1] (10 µM), 75.6 ± 2.5%; in the data set on INS-1 cells [1] (25 µM), 80.7 ± 1.5%; with INS-1 cells [1] (50 µM), 85.7 ± 1.7%; with INS-1 cells [4] (setting [9]) it was 97.4 ± 1.7%; with INS-1 cells [4] (setting [10]), 96.4 ± 1.4%. For the same compound, the “Cell viability (%)” value with INS-1 cells [4] (setting [11]) turned out to be 97.3 ± 3.0%. The “green fluorescent (apoptotic) cells, microscopic image FIG. 8A” value with INS-1 cells [3] is “apoptotic cells were decreased”. Moreover, the “Apoptosis (%)” value with INS-1 cells [3] came out at 21.6 ± 1.5%. Also, the “apoptosis by streptozotocin in words, FIG. 8B” value in the data set with INS-1 cells [3] is given as “remarkably reduced apoptosis”. In addition, the “cytotoxicity / toxicity in words” value in the data set with INS-1 cells [4] is “no cytotoxicity; also recorded: no toxicity”.

Regarding `O=C1CC2C(=C3c4c2ccc(O)c4[C@H](O)C[C@@H]3O)c2cccc(O)c21` (stereo partly shown) [Hypoxylonol-F], the “Stimulation index (SI)” value in the data set on INS-1 cells [2] (setting [6]) was 7.1 ± 0.4; in the data set on INS-1 cells [2] (setting [7]), 7.7 ± 0.3; with INS-1 cells [2] (setting [8]) it was 10.6 ± 0.3. In the data set with INS-1 cells [2], the “insulin secretion” value is “concentration-dependent manner”. The “cell viability reduced” value with INS-1 cells [1] (50 μM streptozotocin) is given as “significantly increased cell viability”. Moreover, the “Cell viability (%)” value with INS-1 cells [1] (5 µM) stood at 70.1 ± 1.7%; with INS-1 cells [1] (10 µM) it was 68.3 ± 3.2%; in the data set with INS-1 cells [1] (25 µM), 70.0 ± 4.3%; with INS-1 cells [1] (50 µM), 69.8 ± 3.8%; in the data set on INS-1 cells [1] (100 µM) it was 71.6 ± 0.9%; in the data set with INS-1 cells [4] (setting [9]), 96.2 ± 4.5%. Also, the results for the “Cell viability (%)” value in the data set on INS-1 cells [4] (setting [10]) and in the data set with INS-1 cells [4] (setting [11]) were 97.3 ± 4.6% and 96.1 ± 0.9%, respectively. Moreover, the “cytotoxicity / toxicity in words” value in the data set on INS-1 cells [4] is “no cytotoxicity; also recorded: no toxicity”.

Turning to `Cc1ccc(S(=O)(=O)NC(=O)NN2CC3CCCC3C2)cc1` (stereo not shown) [gliclazide, reference compound], the “Stimulation index (SI)” value in the data set on INS-1 cells [2] (setting [7]) amounted to 6.1 ± 0.0; in the data set on INS-1 cells [2] (setting [8]) it was 5.7 ± 0.0; in the data set with INS-1 cells [2] (10.0 (head μg/ml; b128 μM for gliclazide)), 6.1 ± 0.1; with INS-1 cells [2] (20.0 (head μg/ml; b128 μM for gliclazide)), 9.3 ± 0.0.
